Measured values from PMC9351623 (Chem, 2022).

Key:
[1] = target: T1, TrxR1 (Homo sapiens, UniProt Q16881); test: Cellular quantitative HTS; type: cell-based; settings: for pIC50 comparison between the two vinylsulfones: despite ca. 1.1 LogP difference; for activity in the cellular RX1 screen: hits classed up to 20 μM
T1 sequence (Q16881 1-499 isoform Q16881-5): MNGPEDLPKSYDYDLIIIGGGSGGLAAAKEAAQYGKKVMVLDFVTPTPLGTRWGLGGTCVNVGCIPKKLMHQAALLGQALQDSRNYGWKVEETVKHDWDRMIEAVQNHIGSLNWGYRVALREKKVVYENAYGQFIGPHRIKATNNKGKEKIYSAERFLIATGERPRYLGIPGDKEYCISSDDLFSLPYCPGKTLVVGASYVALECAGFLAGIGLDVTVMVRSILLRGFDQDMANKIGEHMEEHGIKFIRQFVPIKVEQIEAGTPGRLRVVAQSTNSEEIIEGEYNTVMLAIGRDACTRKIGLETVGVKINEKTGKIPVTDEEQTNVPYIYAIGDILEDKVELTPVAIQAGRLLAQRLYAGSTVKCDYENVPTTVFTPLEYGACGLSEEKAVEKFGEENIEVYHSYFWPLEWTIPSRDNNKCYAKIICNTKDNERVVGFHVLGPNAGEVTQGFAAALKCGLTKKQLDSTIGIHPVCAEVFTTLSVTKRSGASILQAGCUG

[2] = target: T1, TrxR1; settings: cited from earlier work
[3] = target: T2, TrxR (Homo sapiens, UniProt Q16881); test: Cellular probe signal after chemical inhibition of TrxR; type: cell-based
T2 sequence (Q16881 1-499 isoform Q16881-5): T1 sequence (Q16881 1-499 isoform Q16881-5)

SMILES: Cc1ccc(S(=O)(=O)/C=C/C#N)cc1 [BAY 11–7082]
- pIC50 comparison between the two vinylsulfones [1]: no change

SMILES: CC(C)(C)c1ccc(S(=O)(=O)/C=C/C#N)cc1 [BAY 11–7085]
- pIC50 comparison between the two vinylsulfones [1]: no change

SMILES: CN(N=O)c1cc(O)ccc1O [Dephostatin]
- potency loss in cells (ratio of cell-free to cellular potency) ([1]; cellular RX1 qHTS versus cell-free qHTS of ref 67): > 10 fold

SMILES: Oc1ccc2ccccc2c1SSc1c(O)ccc2ccccc12 [IPA-3]
- activity in the cellular RX1 screen [1]: active
- activity in the enzymatic (cell-free) TrxR screen [2]: inactivity

SMILES: COc1ccc([N+](=O)[O-])c(S(=O)(=O)c2ccc(Cl)cc2)n1 [TRi-1]
- effect of TrxR inhibitor on cellular RX1 signal [3]: efficiently suppressed

SMILES: OC[C@H]1O[C@H]([S-])[C@H](O)[C@@H](O)[C@@H]1O.[Au+] [aurothioglucose]
- pIC50 (potency) lower than its ester prodrug auranofin [1]: 10 fold

SMILES: C=CCN1CCc2c(cc(O)c(O)c2Cl)C(c2ccccc2)C1 (centres unmarked) [chloro-APB]
- activity in the cellular RX1 screen [1]: active
- activity in the enzymatic (cell-free) TrxR screen [2]: inactivity

SMILES: O=c1c(O)c(-c2cc(O)c(O)c(O)c2)oc2cc(O)cc(O)c12 [myricetin]
- apparent potency relative to the reference inhibitor TRi-1 [1]: ≤ 3%

SMILES: O=C1CSC(=S)N1 [rhodanine]
- apparent potency relative to the reference inhibitor TRi-1 [1]: ≤ 3%

SMILES: CC(=O)c1c(O)c(C)c(O)c(Cc2c(O)c3c(c(C(=O)/C=C/c4ccccc4)c2O)OC(C)(C)C=C3)c1O [rottlerin]
- apparent potency relative to the reference inhibitor TRi-1 [1]: ≤ 3%

SMILES: COC[C@H]1OC(=O)c2coc3c2[C@@]1(C)C1=C(C3=O)[C@@H]2CCC(=O)[C@@]2(C)C[C@H]1OC(C)=O [wortmannin]
- activity in the cellular RX1 screen [1]: inactive
- activity in the enzymatic (cell-free) TrxR screen [2]: activity
